Measurements reported in US20090220516A1, “Neuroprotection of retinal ganglion cells” (priority 2005, published 2009).

Columns and labels:
[1] = tested on: retina eyecup; experiment: Pressure-triggered ATP release from the bovine retina eyecup; conditions: 30 μM NPPB, 15 minutes preincubation and in medium
From the text: C. ATP release by increased extracellular pressure is inhibited by the general chloride channel blocker NPPB, indicating physiologic significance. […] The ATP levels were normalized with the non-pressure and non NPPB eyecup control levels (white bar). Bars represent the mean±standard error. Numbers indicates the number of retina eyecups per experiment. We performed ANOVA test (Dunnett post-test) to obtain the significant differences indicated by a * symbol (p<0.05) as significant difference with control and ** (p<0.05) as significant difference with the pressure challenged eyecups.

[2] = target: T1, rat P2X7 receptor (Rattus norvegicus, UniProt Q64663); conditions: cited from earlier work
T1 sequence (Q64663 1-595): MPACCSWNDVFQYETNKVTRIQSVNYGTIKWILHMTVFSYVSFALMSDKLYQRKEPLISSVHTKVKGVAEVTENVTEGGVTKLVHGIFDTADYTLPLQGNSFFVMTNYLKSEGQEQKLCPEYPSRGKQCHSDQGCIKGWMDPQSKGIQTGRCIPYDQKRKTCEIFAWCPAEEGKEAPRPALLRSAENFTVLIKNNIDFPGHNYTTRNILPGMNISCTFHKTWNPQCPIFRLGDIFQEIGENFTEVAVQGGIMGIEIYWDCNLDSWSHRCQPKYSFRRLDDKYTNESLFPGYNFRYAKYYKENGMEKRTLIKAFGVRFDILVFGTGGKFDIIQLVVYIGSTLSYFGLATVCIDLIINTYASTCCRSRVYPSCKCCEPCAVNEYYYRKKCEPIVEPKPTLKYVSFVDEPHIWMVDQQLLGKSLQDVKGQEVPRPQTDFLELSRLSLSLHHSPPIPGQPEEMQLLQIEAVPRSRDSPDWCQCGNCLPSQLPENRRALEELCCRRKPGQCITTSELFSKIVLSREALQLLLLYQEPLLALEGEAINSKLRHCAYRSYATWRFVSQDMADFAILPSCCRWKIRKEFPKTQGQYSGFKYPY

[3] = tested on: retinal ganglion cells; experiment: Cell viability studies: labeled retinal ganglion cells surviving after 24 hrs in mixed retinal cultures; type: cell-based, rat; conditions: 300 uM ATP alone, 24 hrs
Procedure: Pups PD2-6 from untimed pregnant Long-Evan rats (Jackson Laboratory Inc., Bar Harbor, Me.) were back-labeled by the injection of FluoroGold derivative aminostilbamidine (Molecular Probes, Eugene, Oreg.) based upon standard protocols. […] Using a Hamilton syringe affixed to a micromanipulator, a needle was inserted 0.8 mm lateral from the midline and 0.8 mm anterior to Bregma's line and a total of 2.5 μl dye was delivered to each side at a depth of 2 mm and 1 mm. The needle was retracted after a delay of 2 min to allow dye absorption and the wound was closed with 2-3 sutures. Preliminary examination of labeled retinal whole mounts confirmed an even distribution of dye, showing all cells were stained 2 days after injection, with no further increase in the number of labeled cells in subsequent days. Consequently, retinas containing labeled ganglion cells were dissociated 2-6 days after injection. Animals were sacrificed by i.p. injection of 50/5 mg/kg Ketamine/Xylazine followed by an overdose, in accordance with University of Pennsylvania IACUC approved protocols and the ARVO Statement on the Use of Animals in Ophthalmic and Vision Research.
The retina was dissected from each globe, washed in sterile Hanks' balanced salt solution (HBSS, Gibco, Inc Invitrogen Corp., Carlsbad, Calif.), then incubated in HBSS containing activated papain (4.5 U/ml; Worthington Biochemical Corp., Lakewood, N.J.) for 12 minutes at 37° C. Retinas were washed twice and triturated 50 times with a 1-ml glass pipette to dissociate cells. Cells were plated onto twelve 12-mm coverslips previously coated with poly-L-lysine. […] Retinal cells were incubated at 37° C. with 5% CO2.
Drugs were added to the culture medium at the time when cells were plated onto coverslips. […] All counts were performed in a masked fashion. In experiments involving antagonist pretreatment, drugs were added to the medium at the time of plating. After preincubation at 37° C., stock concentrations of BzATP were added directly to the cells to give the final concentration shown.
Data are presented as mean±standard error of the mean. Significance was evaluated using a Student's unpaired t test, with a p value <0.05 signifying significance. For cell viability studies, the number of experiments, n, represents the number of coverslips from which 80 fields were measured and averaged. All values were normalized to the mean control level for that day's matched set of experiments to control for variation in plating efficiency.

| Compound | effect on ATP release induced by 20 mm Hg rise in extracellular pressure [1] | EC50 [2] | effect on ganglion cell survival [3] |
| --- | --- | --- | --- |
| O=C(O)c1cc([N+](=O)[O-])ccc1NCCCc1ccccc1 [NPPB, 5-nitro-2-(3-phenylpropyl-amino)benzoic acid] | inhibits the ATP release | – | – |
| Nc1ncnc2c1ncn2C1OC(COP(=O)(O)OP(=O)(O)OP(=O)(O)O)C(O)C1O (stereo not drawn) [ATP] | – | 300 µM | small but significant increase in cell survival |
